In EP0068563A2, “Heterocyclic acetic acid compounds and compositions for treating bone diseases” (THE PROCTER & GAMBLE COMPANY, priority 1981, dated 1983):

Key:
[1] = test system: Weanling male Sprague-Dawley derived rats; assay: in vivo periosteal and endosteal bone apposition rates and endosteal resorption rates (tetracycline/DCAF double label, tibial sections); design: EBAR (endosteal bone apposition rate) / ERR (endosteal resorption rate): unit not given here; settings: for ERR (endosteal resorption rate) / EBAR (endosteal bone apposition rate) / P BAR (periosteal bone apposition rate): subcutaneous daily, 10 days, rat tibia; for ERR (endosteal resorption rate): control 3.6; for EBAR (endosteal bone apposition rate): control 4.0; for P BAR (periosteal bone apposition rate): control 14.7
From the text: The following test was used to establish in vivo periosteal and endosteal bone apposition rates and endosteal resorption rates. The test method is a modification of the method of Baylink, et al., J. Clin. Invest.
Weanling male Sprague-Dawley derived rats weighing 50-60 grams (Charles River Breeding Labs, Wilmington, Massachusetts) were allowed 2-3 days to adapt to the laboratory environment before receiving any treatment. Throughout the adaptation and experimental periods the animals were allowed free access to tap water and food (Purina Lab Rat Chow, Ralston Purina Company, St. Louis, Missouri).
On the first day of the experiment all animals were given a subcutaneous injection of tetracycline hydrochloride at a dose of 20 mg/kg to label the skeleton. Test compound and saline (control animals) treatments were also started on the first day of the experiment. They were given subcutaneously under skin flap where the rear legs join the body using alternating sides each day. Since these animals were rapidly growing, body weights were taken daily and dosage adjusted accordingly.
Seven days after the animals received tetracycline they were given a subcutaneous injection of (2,4 bis)N-N'-di (carboxymethyl)amino methylfluorescein (DCAF) at a dose of 20 mg/kg to provide a second skeletal label.
Ten days after treatments were initiated, the animals were sacrificed by carbon dioxide asphyxiation and their left and right tibias and femurs taken and placed in 70% ethanol until they were further processed.
The test comoounds were given as solutions preoared in distilled water, and the pH was adjusted to 7.4. Solution concentrations were adjusted so that constant volumes of 0.2 ml/100 grams of body weight could be maintained for all animals.
Dose volumes were […] of body weight.
DCAF, (2,4-bis)-N,N'di(carboxymethyl) amino methyl fluorescein, Nutritional Biochemicals Corporation, Cleveland, Ohio was given as a 1% solution in 2% sodium bicarbonate and 0.8% dextrose. This solution was filtered prior to administration to remove any undissolved particles. Dose volumes of the DCAF solution were 0.2 ml/100 grams of body weight.
The left tibiae were blocked stained with Villanueva's stain, embedded in methyl methacrylate and sectioned at 75-100 u. Cross sections were prepared from the shaft of the tibia where it is joined by the distal portion of the fibula.
These parameters were measured in tibial cross sections and in longitudinal sections through the proximal tibial epiphysis with a 5 mm micrometer which was superimposed optically over the section by placing it in the eyepiece of a microscope. Conversion of the values obtained to actual widths was established with a stage micrometer.
The width between fluorescent labels on the periosteal surface was established at 100x by making 4 measurements at 90. degree intervals around the circumference of the labeled area. Measurements were made from the middle of one label to the middle of' the next. A mean value was then established for each surface and multiplied times the conversion factor to obtain the actual distance in microns. Bone apposition rates were then calculated by dividing this value by the number of days over which the fluorescent labels were given (i.e. 7 days).
Endosteal bone apposition was established at 100x by making 4 measurements at equidistant points across the section from the bottom of the plate to the closest fluorescent label (the last label administered). A mean value was then established and multiplied times a conversion factor to obtain the actual distance in microns.
A mean value was then established and multiplied times a conversion factor to obtain the actual distance in microns. Bone resorption rates were calculated by dividing this value by number of days over which the experiment was conducted (i.e. 10 days).

Fetal rat bone = assay: PGE2 stimulated in vitro bone resorption in the fetal long bone system (45Ca release); format: cell-based; settings: versus control cultures; for inhibition at 390 µM: concentration 0.39 mM; for inhibition at 1560 µM: concentration 1.56 mM
Description: Fetal rat bone was cultured in the medium described in this reference. Bone resorption was stimulated by addition of prostaglandin, PGE2, and measured by the release of previously incorporated ^45Ca into the medium and by changes in the total bone calcium content.
PGE2 Stimulated Bone Resorption in the Fetal Long Bone System

`O=C(O)Cc1cc2ccccc2s1` [BTAA, benzothiophene-2-acetic acid] was tested, and the “ERR (endosteal resorption rate)” value ([1]; dose 5 uM) was 1.2, the “EBAR (endosteal bone apposition rate)” value ([1]; dose 5 uM) was 3.5 and the “P BAR (periosteal bone apposition rate)” value ([1]; dose 5 uM) was 16.0. For the same compound, the “ERR (endosteal resorption rate)” value ([1]; dose 16 uM) was 0.9, the “EBAR (endosteal bone apposition rate)” value ([1]; dose 16 uM) was 3.9 and the “P BAR (periosteal bone apposition rate)” value ([1]; dose 16 uM) was 18.1.

For `O=C(O)c1cc2ccccc2s1` [BTCA, benzothiophene-2-carboxylic acid], the “ERR (endosteal resorption rate)” value ([1]; dose 5 uM) was 2.9, the “EBAR (endosteal bone apposition rate)” value ([1]; dose 5 uM) was 3.5 and the “P BAR (periosteal bone apposition rate)” value ([1]; dose 5 uM) was 18.2. The “ERR (endosteal resorption rate)” value ([1]; dose 16 uM) was 3.3, the “EBAR (endosteal bone apposition rate)” value ([1]; dose 16 uM) was 3.4 and the “P BAR (periosteal bone apposition rate)” value ([1]; dose 16 uM) was 16.2. The “bone resorption (conclusion in words)” value ([1]; summary of the rat test table) was “does not significantly reduce bone resorption”.

`O=C(O)c1cccs1` [Thiophene-2-Carboxylic Acid, reference compound] showed an inhibition at 390 µM (Fetal rat bone) of 43% and an inhibition at 1560 µM (Fetal rat bone) of 47.8%.

With `O=C(O)Cc1nc2ccccc2[nH]1` [BMZAA, benzimidazole-2-acetic acid] the “ERR (endosteal resorption rate)” value ([1]; dose 5 uM) was 1.0, the “EBAR (endosteal bone apposition rate)” value ([1]; dose 5 uM) was 3.8 and the “P BAR (periosteal bone apposition rate)” value ([1]; dose 5 uM) was 15.5. The “ERR (endosteal resorption rate)” value ([1]; dose 16 uM) was 1.5, the “EBAR (endosteal bone apposition rate)” value ([1]; dose 16 uM) was 3.4 and the “P BAR (periosteal bone apposition rate)” value ([1]; dose 16 uM) was 18.1.

Compound `O=C(O)Cc1cccs1` [Thiophene-2-Acetic Acid] has an inhibition at 390 µM (Fetal rat bone) of 47.8% and an inhibition at 1560 µM (Fetal rat bone) of 107%.

For `O=P(O)(O)C(Cl)(Cl)P(=O)(O)O` [Cl2MDP, dichloro-methylene-diphosphonate], the “ERR (endosteal resorption rate)” value ([1]; dose 16 uM) was 1.3, the “EBAR (endosteal bone apposition rate)” value ([1]; dose 16 uM) was 3.2 and the “P BAR (periosteal bone apposition rate)” value ([1]; dose 16 uM) was 14.8. The “ERR (endosteal resorption rate)” value ([1]; dose 80 uM) was 0, the “EBAR (endosteal bone apposition rate)” value ([1]; dose 80 uM) was 3.1 and the “P BAR (periosteal bone apposition rate)” value ([1]; dose 80 uM) was 14.8.

In the case of `COc1ccc2[nH]c(C(=O)O)cc2c1` [5-Methoxyindole-2-Carboxylic Acid], the inhibition at 390 µM (Fetal rat bone) is reported as 47.5% and the inhibition at 1560 µM (Fetal rat bone) is reported as 80.1%.
